Measurements reported in patent US12599137B2, “Composition for the drying of Tillandsia sp” (priority 2021, dated 2026).

Tested on: Tillandsia sp
Assay: Sampler of 49 cells, each with one specimen of each Tillandsia species, photographic follow-up every 5 days for 30 days
Format: in vivo, Tillandsia aeranthos and Tillandsia recurvata
Text: Next, we proceeded to form a sampler consisting of a base on which a series of wooden slats separated at parallel intervals were placed, to which perpendicular slats were crossed, achieving a plurality of cells for a total of 49 flat cells. One specimen of Tillandsia aeranthos and one of Tillandsia recurvata were placed inside each cell. Each box was designated with a sequential number from No. 1 to No. 49 and a photographic follow-up was taken every 5 days for a total of 30 days.

Structure (SMILES) | dehydration result of Tillandsia sp, summary in words (conclusions on sampler box tests) | optimum concentration of the active ingredient in water (from Examples 3 to 7, FIG. 1) [g/mL]
Cc1c(C(=O)O)c(O)cc2c1C(=O)c1c(O)c([C@@H]3O[C@H](CO)[C@@H](O)[C@H](O)[C@H]3O)c(O)c(O)c1C2=O [carminic acid] | does not dehydrate | –
O=C([O-])O.[Na+] [sodium bicarbonate] | – | 0.07
